Measured values reported in ChEMBL document CHEMBL3758092, “Discovery and preclinical evaluation of potent, orally bioavailable, metabolically stable cyclopropylindolobenzazepine acylsulfonamides as thumb site 1 inhibitors of the hepatitis c virus NS5B RNA-dependent, RNA polymerase” (Bioorg Med Chem Lett, 2016).

Assays:
Hepatitis C virus [1] = experiment: Antiviral activity against HCV1a by replicon assay; format: functional, organism-based, Hepacivirus hominis; details: subtype 1a
[2] = Ratio of drug level in liver to plasma in rat at 10 mg/kg, po after 6 hrs; format: ADME, organism-based
[3] = Oral bioavailability in rat at 10 mg/kg; format: ADME, organism-based; details: in vivo
Hepatitis C virus [4] = experiment: Antiviral activity against HCV1b by replicon assay in presence of 40% human serum; format: functional, organism-based, Hepacivirus hominis; details: genotype 1b
[5] = AUC (0 to 24 hrs) in rat at 5 mg/kg, iv; format: ADME, organism-based; design: dose 5 mg/kg, time < 24 hr, route intravenous; details: in vivo
[6] = AUC (0 to 24 hrs) in rat at 10 mg/kg, po; format: ADME, organism-based; design: time < 24 hr, dose 10 mg/kg, route oral; details: in vivo
[7] = AUC (0 to 24 hrs) in dog at 1 mg/kg, iv; format: ADME, organism-based, Canis lupus familiaris; design: dose 1 mg/kg, time < 24 hr, route intravenous; details: in vivo
[8] = AUC (0 to 24 hrs) in dog at 3 mg/kg, po; format: ADME, organism-based, Canis lupus familiaris; design: time < 24 hr, dose 3 mg/kg, route oral; details: in vivo
[9] = AUC (0 to 24 hrs) in cynomolgus monkey at 1 mg/kg, iv; format: ADME, organism-based, Macaca fascicularis; design: time < 24 hr, dose 1 mg/kg, route intravenous; details: in vivo
[10] = AUC (0 to 24 hrs) in cynomolgus monkey at 3 mg/kg, po; format: ADME, organism-based, Macaca fascicularis; design: dose 3 mg/kg, time < 24 hr, route oral; details: in vivo
[11] = Oral bioavailability in dog at 3 mg/kg; format: ADME, organism-based, Canis lupus familiaris; details: in vivo
[12] = Oral bioavailability in cynomolgus monkey at 3 mg/kg; format: ADME, organism-based, Macaca fascicularis; details: in vivo
[13] = Ratio of drug level in liver to plasma in rat at 10 mg/kg, po after 48 hrs; format: ADME, organism-based
[14] = Solubility in mid-range pH solutions; format: physicochemical
Hepatitis C virus [15] = experiment: Antiviral activity against HCV1b by replicon assay; format: functional, organism-based, Hepacivirus hominis; details: genotype 1b
[16] = Half life in human liver microsomes; format: ADME
[17] = Half life in cynomolgus monkey liver microsomes; format: ADME, Macaca fascicularis
[18] = (§1) Drug uptake in rat at 10 mg/kg, po liver after 48 hrs; format: ADME, organism-based; details: liver, read-out: Drug uptake
[19] = Clearance in rat at 10 mg/kg, po; format: ADME, organism-based; details: in vivo
in vitro = details: rat, liver microsomes
Description: Metabolic stability in rat liver microsomes assessed as compound remaining after 10 mins

[20] = biological target: Voltage-gated inwardly rectifying potassium channel KCNH2 (Homo sapiens, UniProt Q12809); experiment: Inhibition of human ERG by FLIPR assay
[21] = Permeability of the compound at pH 7.4 by PAMPA; format: ADME; details: read-out: permeability
[22] = Drug uptake in rat at 10 mg/kg, po liver after 4 hrs; format: ADME, organism-based; details: read-out: Drug uptake
[23] = Drug uptake in rat at 10 mg/kg, po liver after 6 hrs; format: ADME, organism-based; details: read-out: Drug uptake
Liver [24] = experiment: as §1; format: ADME, organism-based; details: in vivo, 48 h, BLD = below limit of detection
[25] = Plasma concentration in rat at 10 mg/kg, po after 6 hrs; format: ADME, organism-based
Liver [26] = experiment: Drug uptake in rat at 10 mg/kg, po liver after 24 hrs; format: ADME, organism-based; details: in vivo, BLD = below limit of detection
[27] = Ratio of drug level in liver to plasma in rat at 10 mg/kg, po after 4 hrs; format: ADME, organism-based
[28] = Ratio of drug level in liver to plasma in rat at 10 mg/kg, po after 24 hrs; format: ADME, organism-based

Sequence of Voltage-gated inwardly rectifying potassium channel KCNH2 (Q12809 whole entry): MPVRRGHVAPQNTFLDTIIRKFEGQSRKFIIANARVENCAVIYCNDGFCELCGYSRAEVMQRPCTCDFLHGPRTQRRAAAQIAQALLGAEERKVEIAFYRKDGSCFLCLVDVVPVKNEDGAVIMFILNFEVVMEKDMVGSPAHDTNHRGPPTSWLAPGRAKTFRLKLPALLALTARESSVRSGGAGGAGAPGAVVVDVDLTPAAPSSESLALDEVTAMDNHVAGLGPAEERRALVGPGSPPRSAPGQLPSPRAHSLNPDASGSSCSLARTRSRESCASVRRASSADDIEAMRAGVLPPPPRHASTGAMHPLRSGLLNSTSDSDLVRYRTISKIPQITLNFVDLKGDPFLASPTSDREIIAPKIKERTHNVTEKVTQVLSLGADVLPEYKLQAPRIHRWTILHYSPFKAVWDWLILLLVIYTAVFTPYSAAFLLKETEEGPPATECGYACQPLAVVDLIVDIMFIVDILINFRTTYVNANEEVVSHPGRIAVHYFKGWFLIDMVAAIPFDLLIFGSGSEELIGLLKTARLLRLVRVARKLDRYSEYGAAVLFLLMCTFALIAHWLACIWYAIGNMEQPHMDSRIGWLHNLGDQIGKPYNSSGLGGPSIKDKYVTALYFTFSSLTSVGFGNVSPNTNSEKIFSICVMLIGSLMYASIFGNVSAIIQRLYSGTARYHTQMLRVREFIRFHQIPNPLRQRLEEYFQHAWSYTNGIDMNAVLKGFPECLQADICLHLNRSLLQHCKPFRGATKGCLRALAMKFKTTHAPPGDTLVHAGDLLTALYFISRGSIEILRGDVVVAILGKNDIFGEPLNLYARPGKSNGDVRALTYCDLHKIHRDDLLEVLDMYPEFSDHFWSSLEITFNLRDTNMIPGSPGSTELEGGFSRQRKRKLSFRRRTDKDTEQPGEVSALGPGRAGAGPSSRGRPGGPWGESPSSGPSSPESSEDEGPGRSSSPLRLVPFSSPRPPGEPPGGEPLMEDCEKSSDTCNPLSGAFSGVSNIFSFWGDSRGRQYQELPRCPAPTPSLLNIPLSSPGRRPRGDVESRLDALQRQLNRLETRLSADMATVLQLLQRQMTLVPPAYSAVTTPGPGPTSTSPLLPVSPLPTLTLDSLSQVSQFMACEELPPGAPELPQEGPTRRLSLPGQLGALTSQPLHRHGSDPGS

Compound	EC50 (Hepatitis C virus [1]) [nM]	Kp at 6 h [2]	bioavailability [3] [%]	EC50 (Hepatitis C virus [15]) [nM]	half-life [16] [min]	half-life [17] [min]	CL/F [19] [mL/min/kg]	concentration at 6 h [23] [µM]	other results
COc1ccc2c(c1)[C@@H]1C[C@]1(C(=O)N1C3CCC1CN(C)C3)Cn1c-2c(C2CCCCC2)c2ccc(C(=O)NS(=O)(=O)C(C)C)cc21	7	20	65						EC50 (Hepatitis C virus [4]): 20 nM; AUC(0-t) at 24 h [5]: 18 µM·h; AUC(0-t) at 24 h [6]: 16 µM·h; AUC(0-t) at 24 h [7]: 36 µM·h; AUC(0-t) at 24 h [8]: 124 µM·h; AUC(0-t) at 24 h [9]: 7 µM·h; AUC(0-t) at 24 h [10]: 5.4 µM·h; bioavailability [11]: 100%; bioavailability [12]: 25%; Kp at 48 h [13]: 11; solubility [14]: soluble
COc1ccc2c(c1)[C@H]1C[C@@]1(C(=O)N1C3CCC1CN(C)C3)Cn1c-2c(C2CCCCC2)c2ccc(C(=O)NS(=O)(=O)C(C)C)cc21	196			148					
COc1ccc2c(c1)[C@@H]1C[C@]1(C(=O)N1C3CCC1CN(C)C3)Cn1c-2c(C2CCCCC2)c2ccc(C(=O)NS(=O)(=O)C3CCC3)cc21			28	5	70.5	65.5	13.4		concentration at 48 h [18]: 70 nM; EC50 (Hepatitis C virus [4]): 70 nM; remaining at 10 min (in vitro): 87.8%
COc1ccc2c(c1)[C@@H]1C[C@]1(C(=O)N1C3CCC1CN(C)C3)Cn1c-2c(C2CCCCC2)c2ccc(C(=O)NS(=O)(=O)CC(C)C)cc21		47	41	2	> 72	24.4			IC50 [20]: 16.6 µM; EC50 (Hepatitis C virus [4]): 80 nM; Kp at 48 h [13]: 4; remaining at 10 min (in vitro): 100%
COc1ccc2c(c1)C1CC1(C(=O)N1C3CCC1CN(C)C3)Cn1c-2c(C2CCCCC2)c2ccc(C(=O)NS(=O)(=O)N(C)C)cc21 (racemic)				12	76				Papp [21]: 71.3 ×10⁻⁶ cm/s; concentration at 4 h [22]: 69 µM; remaining at 10 min (in vitro): 100%
COc1ccc2c(c1)C1CC1(C(=O)N1C3CCC1CN(C)C3)Cn1c-2c(C2CCCCC2)c2ccc(C(=O)NS(=O)(=O)C3CCCC3)cc21 (racemic)	24	36		62	> 60	18.2	7.7	35.3	
COc1ccc2c(c1)C1CC1(C(=O)N1C3CCC1CN(C)C3)Cn1c-2c(C2CCCCC2)c2ccc(C(=O)NS(=O)(=O)CC(C)C)cc21 (racemic)	14	150		22	> 60	24.5	9.2	88.3	
COc1ccc2c(c1)C1CC1(C(=O)N1C3CCC1CN(C)C3)Cn1c-2c(C2CCCCC2)c2ccc(C(=O)NS(=O)(=O)CC3CC3)cc21 (racemic)	5		13.7	22	200	39	19.6		concentration at 48 h [18]: 150 nM
COc1ccc2c(c1)C1CC1(C(=O)N1C3CCC1CN(C)C3)Cn1c-2c(C2CCCCC2)c2ccc(C(=O)NS(=O)(=O)C3CCC3)cc21 (racemic)	23	67		40	> 60	46.5	5.2	38.8	
COc1ccc2c(c1)C1CC1(C(=O)N1C3CCC1CN(C)C3)Cn1c-2c(C2CCCCC2)c2ccc(C(=O)NS(=O)(=O)CC3CCC3)cc21 (racemic)	15		19.1	56	45	9	13.3		Drug uptake (Liver [24]): BLD
CCN(C)S(=O)(=O)NC(=O)c1ccc2c(C3CCCCC3)c3n(c2c1)CC1(C(=O)N2C4CCC2CN(C)C4)CC1c1cc(OC)ccc1-3 (racemic)	14			13	27.3			36.4	Papp [21]: 56.1 ×10⁻⁶ cm/s; concentration at 6 h [25]: 178 nM; remaining at 10 min (in vitro): 94%
COc1ccc2c(c1)C1CC1(C(=O)N1C3CCC1CN(C)C3)Cn1c-2c(C2CCCCC2)c2ccc(C(=O)NS(=O)(=O)C(C)C)cc21 (racemic)	20	13	65	28				26.2	
COc1ccc2c(c1)C1CC1(C(=O)N1C3CCC1CN(C)C3)Cn1c-2c(C2CCCCC2)c2ccc(C(=O)NS(=O)(=O)C(C)(C)C)cc21 (racemic)	8		12.4	23	> 60	44	13.5		Drug uptake (Liver [26]): BLD
CCS(=O)(=O)NC(=O)c1ccc2c(C3CCCCC3)c3n(c2c1)CC1(C(=O)N2C4CCC2CN(C)C4)CC1c1cc(OC)ccc1-3 (racemic)	17	108		23	206	72	40	7.9	
CCCCS(=O)(=O)NC(=O)c1ccc2c(C3CCCCC3)c3n(c2c1)CC1(C(=O)N2C4CCC2CN(C)C4)CC1c1cc(OC)ccc1-3 (racemic)	15			45	73	19			
COc1ccc2c(c1)C1CC1(C(=O)N1C3CCC1CN(C)C3)Cn1c-2c(C2CCCCC2)c2ccc(C(=O)NS(=O)(=O)N3CCC3)cc21 (racemic)	12			24	135	55		0.8	Papp [21]: 66.5 ×10⁻⁶ cm/s; concentration at 6 h [25]: 20 nM; remaining at 10 min (in vitro): 100%
COc1ccc2c(c1)C1CC1(C(=O)N1C3CCC1CN(C)C3)Cn1c-2c(C2CCCCC2)c2ccc(C(=O)NS(C)(=O)=O)cc21 (racemic)	13		3.6	18	179	80	54.4		Drug uptake (Liver [26]): BLD
COc1ccc2c(c1)C1CC1(C(=O)N1C3CCC1CN(C)C3)Cn1c-2c(C2CCCCC2)c2ccc(C(=O)NS(=O)(=O)C3CC3)cc21 (racemic)	7	66	4.9	15	179	130	26.9		concentration at 4 h [22]: 6.4 µM
CCCS(=O)(=O)NC(=O)c1ccc2c(C3CCCCC3)c3n(c2c1)CC1(C(=O)N2C4CCC2CN(C)C4)CC1c1cc(OC)ccc1-3 (racemic)	8	120		21	112	37	16.5	13.1	
CCC(C)S(=O)(=O)NC(=O)c1ccc2c(C3CCCCC3)c3n(c2c1)CC1(C(=O)N2C4CCC2CN(C)C4)CC1c1cc(OC)ccc1-3 (racemic)	15			37	18	38			
COc1ccc2c(c1)C1CC1(C(=O)N1C3CCC1CN(C)C3)Cn1c-2c(C2CCCCC2)c2ccc(C(=O)NS(=O)(=O)CC(C)(C)C)cc21 (racemic)	23	14.5		41	48	8.4	4.1	65.3	
COc1ccc2c(c1)[C@@H]1C[C@]1(C(=O)N1[C@@H]3CC[C@H]1CN(C)C3)Cn1c-2c(C2CCCCC2)c2ccc(C(=O)NS(=O)(=O)N(C)C)cc21 [BECLABUVIR]		10	43		45				IC50 [20]: 26 µM; Kp at 4 h [27]: 2; EC50 (Hepatitis C virus [4]): 40 nM; Kp at 24 h [28]: 10; remaining at 10 min (in vitro): 100%
